pEC50: −log10 of the molar value. Like-named read-outs stand apart in the source and are kept apart here. Starred links: 1 amine or outer side, 2 acyl side, 3 side chain; linkers in the order of their positions; H or OH if unused. Non-standard residues stand in square brackets, D forms with d. Residues, ends and D or L forms follow the SMILES beside them. Groups on a side chain read outwards from the residue. No end group written: not given here. *: point of attachment. C18 diacid = O=C(O)CCCCCCCCCCCCCCCCC(=O)*; αMePhe(2-F) = C[C@](N)(Cc1ccccc1F)C(=O)O; γGlu = O=C(O)[C@H](CCC(=O)[*:2])N[*:1]; αMe4Pal = C[C@](N)(Cc1ccncc1)C(=O)O; αMeY = C[C@](N)(Cc1ccc(O)cc1)C(=O)O; 4Pal = N[C@@H](Cc1ccncc1)C(=O)O; αMeL = CC(C)C[C@](C)(N)C(=O)O; αMeS = C[C@](N)(CO)C(=O)O; Orn = NCCC[C@H](N)C(=O)O; AEEA = NCCOCCOCC(=O)O; Aib = CC(C)(N)C(=O)O
Tests used:
Assay type in all cases: cell-based
[1] = biological target: human GcgR (Homo sapiens, UniProt P47871); test: Functional cAMP activity in the presence of 1% HSA; conditions: read-out: cAMP Rel EC50, hGcgR
[2] = biological target: T1, hGIPR (Homo sapiens, UniProt P48546); test: Functional cAMP activation in the presence of 0.1% casein (no HSA); conditions: read-out: Relative cAMP EC50, hGIPR;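 further: intracellular cAMP rise after 30 min at 37 °C read by HTRF against a standard curve, scaled between buffer alone (0%) and top control ligand concentration (100%), four-parameter fit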
T1 sequence (P48546 22-466): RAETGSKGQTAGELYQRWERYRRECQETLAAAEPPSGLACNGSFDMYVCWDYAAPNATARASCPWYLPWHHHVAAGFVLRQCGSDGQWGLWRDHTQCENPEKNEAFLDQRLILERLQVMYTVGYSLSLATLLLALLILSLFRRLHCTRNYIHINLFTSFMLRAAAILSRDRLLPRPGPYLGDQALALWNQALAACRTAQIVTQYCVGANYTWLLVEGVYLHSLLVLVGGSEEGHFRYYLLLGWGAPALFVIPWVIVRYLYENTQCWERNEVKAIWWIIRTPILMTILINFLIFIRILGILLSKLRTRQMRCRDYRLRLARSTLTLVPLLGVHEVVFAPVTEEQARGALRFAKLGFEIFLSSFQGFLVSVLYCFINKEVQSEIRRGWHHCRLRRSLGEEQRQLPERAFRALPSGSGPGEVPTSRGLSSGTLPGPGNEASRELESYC

[3] = biological target: T1, hGIPR; test: Functional cAMP activity in the presence of 1% HSA; conditions: read-out: cAMP Rel EC50, hGIPR
[4] = biological target: hGcgR (Homo sapiens, UniProt P47871); test: Functional cAMP activation in the presence of 0.1% casein (no HSA); conditions: read-out: Relative cAMP EC50, hGcgR;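 further: intracellular cAMP rise after 30 min at 37 °C, read by HTRF against a cAMP standard curve, scaled from buffer only (0%) to maximal control ligand response (100%)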
[5] = biological target: T2, hGLP-1R (Homo sapiens, UniProt P43220); test: Functional cAMP activity in the presence of 1% HSA; conditions: read-out: cAMP Rel EC50, hGLP-1R
[6] = biological target: T2, hGLP-1R; test: Functional cAMP activation in the presence of 0.1% casein (no HSA); conditions: read-out: Relative cAMP EC50, hGLP-1R;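 further: intracellular cAMP rise after 30 min at 37 °C read by HTRF, normalized between buffer only (0%) and maximal control ligand (100%), four-parameter variable-slope fit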
[7] = in the presence of 0.1% casein (no HSA), geometric mean
[8] = 0.1% casein, no HSA, geometric mean

T2 sequence (P43220 24-463): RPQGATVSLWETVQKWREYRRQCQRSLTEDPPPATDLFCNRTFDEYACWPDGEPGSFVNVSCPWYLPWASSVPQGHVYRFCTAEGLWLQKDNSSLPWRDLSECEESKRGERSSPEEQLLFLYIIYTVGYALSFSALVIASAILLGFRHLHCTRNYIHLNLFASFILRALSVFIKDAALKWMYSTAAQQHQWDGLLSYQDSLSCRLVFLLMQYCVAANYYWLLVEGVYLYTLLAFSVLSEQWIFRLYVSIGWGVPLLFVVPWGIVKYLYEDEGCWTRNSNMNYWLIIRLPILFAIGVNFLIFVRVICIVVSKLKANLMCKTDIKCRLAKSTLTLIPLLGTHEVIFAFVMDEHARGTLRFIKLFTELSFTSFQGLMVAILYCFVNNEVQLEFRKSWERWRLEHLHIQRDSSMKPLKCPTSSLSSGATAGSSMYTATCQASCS
Sequence of human GcgR (P47871 26-477): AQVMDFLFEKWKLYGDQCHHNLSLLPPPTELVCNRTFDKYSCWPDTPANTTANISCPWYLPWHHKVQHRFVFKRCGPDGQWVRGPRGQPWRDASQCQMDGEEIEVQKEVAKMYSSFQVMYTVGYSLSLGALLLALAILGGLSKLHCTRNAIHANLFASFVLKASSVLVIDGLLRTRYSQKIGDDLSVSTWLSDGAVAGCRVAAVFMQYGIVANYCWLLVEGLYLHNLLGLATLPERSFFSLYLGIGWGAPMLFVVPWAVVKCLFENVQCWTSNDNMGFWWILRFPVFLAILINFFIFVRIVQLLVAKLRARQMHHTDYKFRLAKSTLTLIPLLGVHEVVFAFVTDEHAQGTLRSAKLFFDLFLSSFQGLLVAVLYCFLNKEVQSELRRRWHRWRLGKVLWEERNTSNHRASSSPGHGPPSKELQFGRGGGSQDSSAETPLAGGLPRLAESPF
Sequence of hGcgR (P47871 26-477): as above

Row | pEC50 [1] | pEC50 [2] | pEC50 [3] | pEC50 [4] | pEC50 [5] | pEC50 [6] | Molecule | pEC50 [2, 7] | pEC50 [4, 7] | pEC50 [6, 7] | pEC50 [2, 8] | pEC50 [4, 8] | pEC50 [6, 8]
1 | 6.37 | 10.69 | 8.78 | 7.94 | 7.72 | 9.25 | CC[C@H](C)[C@H](NC(=O)[C@H](CC(C)C)NC(=O)[C@H](Cc1ccc(O)cc1)NC(=O)[C@@H](CCC(=O)O)NC(=O)[C@@H](NC(=O)[C@H](Cc1ccccc1)NC(=O)[C@H](CC(N)=O)NC(=O)C(C)(C)NC(=O)[C@H](CCC(N)=O)NC(=O)[C@H](C)NC(=O)[C@H](CCCCNC(=O)CC[C@H](NC(=O)CC[C@H](NC(=O)CCCCCCCCCCCCCCCCC(=O)O)C(=O)O)C(=O)O)NC(=O)[C@H](CCCN)NC(=O)[C@H](CC(=O)O)NC(=O)[C@H](CC(C)C)NC(=O)[C@](C)(CC(C)C)NC(=O)[C@@H](NC(=O)[C@](C)(CO)NC(=O)[C@H](Cc1ccncc1)NC(=O)[C@H](CC(=O)O)NC(=O)[C@H](CO)NC(=O)[C@@H](NC(=O)[C@](C)(Cc1ccccc1F)NC(=O)[C@@H](NC(=O)CNC(=O)[C@H](CCC(N)=O)NC(=O)C(C)(C)NC(=O)[C@@H](N)Cc1ccc(O)cc1)[C@@H](C)O)[C@@H](C)O)[C@@H](C)CC)[C@@H](C)CC)C(=O)N[C@@H](CCC(=O)O)C(=O)NCC(=O)NCC(=O)N1CCC[C@H]1C(=O)N[C@@H](CO)C(=O)N[C@@H](CO)C(=O)NCC(=O)N[C@@H](CCC(=O)O)C(=O)N1CCC[C@H]1C(=O)N1CCC[C@H]1C(=O)N1CCC[C@H]1C(=O)N[C@@H](CCC(=O)O)C(N)=O [Example 449] (H-Y[Aib]QGT[αMePhe(2-F)]TSD[4Pal][αMeS]I[αMeL]LD[Orn]K([γGlu-γGlu-C18 diacid])AQ[Aib]NFI[dE]YLIEGGPSSGEPPPE-NH2) | – | – | – | – | – | –
2 | 6.59 | 11.00 | 8.98 | 8.70 | 7.54 | 9.61 | H-Y[Aib]QGT[αMePhe(2-F)]TSD[4Pal]SI[αMeL]LD[Orn]K([AEEA-γGlu-C18 diacid])AQ[αMe4Pal][Orn]FI[dE][αMeY]LIEGGPSSGEPPPEGTGE-NH2 [Example 680] | – | – | – | – | – | –
3 | 6.81 | 10.98 | 9.06 | 8.85 | 7.64 | 9.59 | Y[Aib]QGT[αMePhe(2-F)]TSD[4Pal][αMeS]I[αMeL]LD[Orn]K([γGlu-γGlu-C18 diacid])AA[Aib]EFI[dE][αMeY]LIEGGPSSGEPPPSGGGE-NH2 [Example 748] | – | – | – | – | – | –
4 | 6.48 | 10.85 | 8.97 | 8.90 | 7.70 | 9.68 | H-Y[Aib]QGT[αMePhe(2-F)]TSD[4Pal]SI[αMeL]LD[Orn]K([AEEA-γGlu-C18 diacid])AQ[Aib][Orn]FIEYLLEGGPSSGEPPPEEG-NH2 [Example 494] | – | – | – | – | – | –
5 | 6.74 | 10.92 | 9.20 | 8.27 | 7.53 | 9.34 | Y[Aib]QGT[αMePhe(2-F)]TSD[4Pal][αMeS]I[αMeL]LD[Orn]K([γGlu-γGlu-C18 diacid])AQ[αMe4Pal]EFI[dE][αMeY]LVEGGPSSGEPPPSGSEE-NH2 [Example 740] | – | – | – | – | – | –
6 | 6.30 | 10.34 | 8.26 | 8.28 | 6.86 | 9.00 | H-Y[Aib]QGT[αMePhe(2-F)]TSD[4Pal]SILLD[Orn]K([γGlu-γGlu-C18 diacid])AQ[αMe4Pal][Orn]FI[dE]YLIEGGPSSGEPPPSGTEE-NH2 [Example 584] | – | – | – | – | – | –
7 | 6.54 | – | 9.19 | – | 7.34 | – | H-Y[Aib]QGT[αMePhe(2-F)]TSD[4Pal][αMeS]I[αMeL]LD[Orn]K([AEEA-γGlu-C18 diacid])AQ[αMe4Pal]EFI[dE][αMeY]LIEGGPPS[Aib][Orn]PPP[Orn]GGGE-NH2 [Example 1197] | – | – | – | 11.18 | 8.73 | 9.39
8 | 6.61 | 10.85 | 8.91 | 8.55 | 7.33 | 9.31 | H-Y[Aib]QGT[αMePhe(2-F)]TSD[4Pal][αMeS]I[αMeL]LD[Orn]K([AEEA-γGlu-C18 diacid])AQ[αMe4Pal]EFI[dE][αMeY]LVEGGPSSGEPPPSGSEE-NH2 [Example 736] | – | – | – | – | – | –

Row | Molecule | pEC50 [1] | pEC50 [2] | pEC50 [3] | pEC50 [4] | pEC50 [5] | pEC50 [6] | pEC50 [2, 7] | pEC50 [4, 7] | pEC50 [6, 7] | pEC50 [2, 8] | pEC50 [4, 8] | pEC50 [6, 8]
9 | Y[Aib]QGTFTSD[4Pal]SQ[αMeL]LD[Orn]K([dE-γGlu-C18 diacid])AQ[αMe4Pal]AFIQ[αMeY]LLEGGPSSGAPPPSGSEEE-NH2 [Example 1083] | 5.99 | – | 7.69 | – | 6.26 | – | 9.48 | 7.82 | 8.11 | – | – | –
10 | H-Y[Aib]QGT[αMePhe(2-F)]TSD[4Pal]SI[αMeL]LD[Orn]K([γGlu-γGlu-C18 diacid])AQ[αMe4Pal]EFI[dE][αMeY]LIEGGPSSGAPPPSGE-NH2 [Example 616] | 6.13 | 11.14 | 9.33 | 8.18 | 7.54 | 9.54 | – | – | – | – | – | –
11 | CC[C@H](C)[C@H](NC(=O)[C@H](CO)NC(=O)[C@H](Cc1ccc(O)cc1)NC(=O)[C@H](CC(=O)O)NC(=O)[C@H](CO)NC(=O)[C@@H](NC(=O)[C@](C)(Cc1ccccc1F)NC(=O)[C@@H](NC(=O)CNC(=O)[C@H](CCC(N)=O)NC(=O)C(C)(C)NC(=O)[C@@H](N)Cc1ccc(O)cc1)[C@@H](C)O)[C@@H](C)O)C(=O)N[C@@H](CC(C)C)C(=O)N[C@@H](CC(C)C)C(=O)N[C@@H](CC(=O)O)C(=O)N[C@@H](CCCCN)C(=O)N[C@@H](CCCCNC(=O)CC[C@H](NC(=O)CC[C@H](NC(=O)CCCCCCCCCCCCCCCCC(=O)O)C(=O)O)C(=O)O)C(=O)N[C@@H](C)C(=O)N[C@@H](CCC(N)=O)C(=O)NC(C)(C)C(=O)N[C@@H](CC(N)=O)C(=O)N[C@@H](Cc1ccccc1)C(=O)N[C@H](C(=O)N[C@@H](CCC(=O)O)C(=O)N[C@@H](Cc1ccc(O)cc1)C(=O)N[C@@H](CC(C)C)C(=O)N[C@@H](CCC(=O)O)C(=O)N[C@@H](CCC(=O)O)C(=O)NCC(=O)NCC(=O)N1CCC[C@H]1C(=O)N[C@@H](CO)C(=O)N[C@@H](CO)C(=O)NCC(=O)N[C@@H](C)C(=O)N1CCC[C@H]1C(=O)N1CCC[C@H]1C(=O)N1CCC[C@H]1C(=O)N[C@@H](CO)C(N)=O)[C@@H](C)CC [Example 416] (H-Y[Aib]QGT[αMePhe(2-F)]TSDYSILLDKK([γGlu-γGlu-C18 diacid])AQ[Aib]NFIEYLEEGGPSSGAPPPS-NH2) | 6.46 | 10.41 | 7.56 | 8.68 | 7.39 | 9.48 | – | – | – | – | – | –
12 | Y[Aib]QGTFTSD[4Pal]SQ[αMeL]LDKK([AEEA-γGlu-C18 diacid])AQ[Aib]AFIE[αMeY]LIEGGPSSGAPPPSGS-NH2 [Example 838] | 5.51 | – | 7.63 | – | 7.14 | – | 9.65 | 7.68 | 9.42 | – | – | –
13 | H-Y[Aib]Q[dA]T[αMePhe(2-F)]TSD[4Pal][αMeS]I[αMeL]LD[Orn]K([AEEA-γGlu-C18 diacid])AQ[Aib]EFI[dE][αMeY]LIEGGPSSGAPPPSGGGE-NH2 [Example 1223] | 6.33 | – | 8.03 | – | 7.39 | – | – | – | – | 10.04 | 8.58 | 9.47
14 | H-Y[Aib]QGTFTSD[4Pal]SQ[αMeL]LDKK([AEEA-γGlu-C18 diacid])AQ[αMe4Pal]AFIE[αMe4Pal]LIE[Aib]GPSSGAPPPSGTE-NH2 [Example 1116] | 6.44 | – | 7.97 | – | 6.70 | – | 9.87 | 8.09 | 8.33 | – | – | –
